One molecule from patent US20180177725A1, “CELL MEMBRANE-FORMED NANOSCALE VESICLES AND METHODS OF USING THEREOF” (WASHINGTON STATE UNIVERSITY, priority 2015, published 2018) can be followed below.

This experiment concerns LPS-induced acute lung inflammation. The experiment in a line: Mouse acute lung inflammatory (ALI) model, LPS-induced. It is filed as in vivo. The following applies: TPCA-1 0.33 mg/kg i.v. As for the experimental part: Mouse acute lung inflammatory (ALI) model: CD1 male mice were utilized. ALI was induced by intracheal spray of LPS (10 mg/kg) using a Model ICA-IC-M MicroSprayer Aerosolizer (Pen-Century). Approximately 3 hours after LPS was challenged, mice were intravenously injected with HBSS, free drug (TPCA-1), TPCA-1 loaded erythrocyte vesicles and TPCA-1 loaded HL 60 vesicles at two doses of 0.33 and 1 mg/ kg.
Bronchoalveolar lavage fluid collection and cell count: At 13 hours post-LPS administration, mice were anesthetized with an i.p. injection of ketamine and xylazine mixture. The trachea was cannulated, and 1 ml HBSS was infused intratracheally and withdrawn to obtain lavage fluid. This procedure was repeated twice. […] The total cell number was determined with a hemocytometer. […] The percentages of neutrophils were determined after counting 200 cells in randomly selected fields.
Cytokine generation: Cytokine levels in the BAL were determined using commercial ELISA kits for TNF-α and IL-6 (Biolegend, San Diego, Calif.) according to the manufacturer's instructions. […]
Measurement of lung vascular permeability: The permeability was evaluated via the larvage protein content change. The total protein concentrations were determined using a BCA protein assay kit (Thermo scientific, Rockford, Ill.).

In the case of `NC(=O)Nc1sc(-c2ccc(F)cc2)cc1C(N)=O` [TPCA-1, 2-[(Aminocarbonyl)amino]-5-(4-fluorophenyl)-3-thiophenecarboxamide], the “therapeutic benefit on neutrophil infiltration at low dose” value is “rarely showed this benefit”.
